Experimental data from US20060211002A1, “Antibiotic susceptibility and virulence factor detection in Pseudomonas aeruginosa” (priority 2005, published 2006).
Like-named read-outs stand apart in the source and are kept apart here.

Experiments:
[1] = system: 60 clinical P. aeruginosa isolates; assay: Antibiotic susceptibility testing, NEG MIC Type 30 panel on MicroScan WalkAway-96 SI, MICs interpreted according to NCCLS guidelines; type: cell-based, Pseudomonas aeruginosa; settings: for MIC: Pseudomonas aeruginosa, read-out: 60 MIC
Excerpt: The wild-type reference strain P. aeruginosa PAO1 was obtained from the ATCC (AT47085). The other P. aeruginosa strains were collected from patients at the Robert Bosch Hospital in Stuttgart, Germany. They were recovered from respiratory samples (n=51), swabs (n=5), urine (n=2) and faeces (n=2). All isolates were identified with the API 20NE system (bioMerieux, Marcy l'Etoile, France) and the NEG Breakpoint Combo Type 30 panel on the MicroScan WalkAway®-96 SI system (Dade Behring, Liederbach, Germany). All bacterial strains were either routinely cultured at 37° C. on Mueller-Hinton (MH) agar or grown in Luria Bertani broth (LB).
(§1) The antibiotic susceptibility was determined with the NEG MIC Type 30 panel on the MicroScan WalkAway®-96 SI system. The MICs were interpreted according to the NCCLS guidelines.
The test collective of P. aeruginosa isolates was recovered from three intensive care units (ICU) or other hospital wards as far as an unusual multidrug resistance was observed. […] 4.

[2] = system: 60 clinical P. aeruginosa isolates; set-up: species or system Pseudomonas aeruginosa; settings: predicted from mutations and resistance genes found by array in 60 isolates
Procedure: The 60 P. aeruginosa isolates were tested with the array applying the same hybridization conditions. Tab.
In order to compare genotype and phenotype based resistance profiles, we calculated a cumulative resistance rate against different groups of antibiotics based on the array data (Tab. 6).

[3] = system: 3 consecutive Pseudomonas aeruginosa isolates from the same patient; assay: Phenotypic susceptibility profile of 3 consecutive isolates from the same patient; type: cell-based; settings: S/R phenotype
Procedure: as §1

[4] = Table 3, P. aeruginosa test collective
[5] = Table 6, MIC tied to the resistant isolates, NCCLS interpretation
[6] = Table 6, phenotypic resistance rate

Row | Molecule | % of resistant isolates out of 60 [1, 4] [%] | Number of resistant isolates out of 60 [1, 4] | 60 MIC [1, 5] [µg/mL] | Number of resistant isolates out of 60 ([1]; Table 6, phenotypic resistance) | % of resistant isolates out of 60 [1, 6] [%] | MIC [1] [µg/mL] | susceptibility rate ([1]; test collective of isolates) | Cumulative resistance predicttion deduced from array [2] [%] | resistance rate ([1]; test collective of isolates) [%] | MIC [1, 5] [µg/mL] | Susceptibility profile, Isolate 2 ([3]; collected one week after the first isolate) | Susceptibility profile, Isolate 1 ([3]; first isolate) | Susceptibility profile, Isolate 3 ([3]; last of three isolates collected within three weeks)
1 | CC(C)(O/N=C(\C(=O)N[C@@H]1C(=O)N2C(C(=O)[O-])=C(C[n+]3ccccc3)CS[C@H]12)c1csc(N)n1)C(=O)O [Ceftazidim, ceftazidime] | 33 | 20 | >16 | 20 | 33 | – | – | – | – | – | – | – | –
2 | C[C@@H](O)[C@H]1C(=O)N2C(C(=O)O)=C(SCCN=CN)C[C@H]12 [Imipenem, imipenem] | 45 | 27 | – | 27 | 45 | > 8 | less than 55% | – | – | – | – | – | –
3 | NCC[C@H](O)C(=O)N[C@@H]1C[C@H](N)[C@@H](O[C@H]2O[C@H](CN)[C@@H](O)[C@H](O)[C@H]2O)[C@H](O)[C@H]1O[C@H]1O[C@H](CO)[C@@H](O)[C@H](N)[C@H]1O [Amikacin, amikacin] | 17 | 10 | – | 10 | 17 | > 32 | – | – | – | – | – | – | –
4 | colistin | 0 | 0 | – | 0 | 0 | – | – | 0 | 0 | – | – | – | –
5 | CCN1CCN(C(=O)N[C@@H](C(=O)N[C@@H]2C(=O)N3[C@@H]2SC(C)(C)[C@@H]3C(=O)O)c2ccccc2)C(=O)C1=O [Piperacillin, piperacillin] | 35 | 21 | – | 21 | 35 | – | – | 38 | – | > 64 | – | – | –
6 | NC[C@H]1O[C@H](O[C@H]2[C@H](O)[C@@H](O[C@H]3O[C@H](CO)[C@@H](O)[C@H](N)[C@H]3O)[C@H](N)C[C@@H]2N)[C@H](N)C[C@@H]1O [Tobramycin, tobramycin] | 10 | 6 | – | 6 | 10 | > 8 | – | – | – | – | susceptible | susceptible | resistance
7 | gentamicin | 37 | 22 | >8 | 22 | 37 | – | – | 45 | – | – | – | – | –
8 | C[C@H]1COc2c(N3CCN(C)CC3)c(F)cc3c(=O)c(C(=O)O)cn1c23 [Levofloxacin, levofloxacin] | 43 | 26 | – | 26 | 43 | > 4 | – | – | – | – | – | – | –
